Experiments:
JAK3 = biological target: T1, JAK3 (Homo sapiens, UniProt P52333); assay: JAK3 inhibitory activity, Z-Lyte Kinase Assay Kit; assay type: biochemical; conditions: 60 minutes at room temperature, JAK3 enzyme (Invitrogen PV3855)
T1 construct: purchased Invitrogen PV3855
Protocol: (§1) Evaluation of JAK3 and BTK Inhibitory Activity
(§2) The compounds prepared in Examples 1 to 20 were tested for JAK3 and BTK inhibitory activity. Kinase inhibitory activity was measured by using Z-Lyte Kinase Assay Kit (Invitrogen), and JAK3 and BTK enzymes were purchased from Invitrogen (PV3855, PV3190).
(§3) Specifically, the compounds of Examples 1 to 20 were diluted with a 4% aqueous solution of DMSO to obtain solutions with concentrations in the range of 1˜0.0001 μM. Each kinase was diluted to 1˜10 ng/assay, and ATP was diluted to form a kinase buffer (50 mM HEPES, pH 7.4; 10 mM MgCl2; 1 mM EGTA; 0.01% BRIJ-35) by calculating an approximate Kd value. The assays were performed in 384-well polystyrene flat-bottomed plates. 5 μL of the diluted solution of the compound, peptide substrate having a suitable concentration, 10 μL of mixed kinase solution and 5 μL of ATP solution having a concentration of 5 to 300 μM were added to the sample, and allowed to react in a mixer for 60 minutes at room temperature. After 60 minutes, 10 μL of fluorescent labeling reagents was added to each mixture so as to allow fluorescent labeling of peptide substrates, followed by adding a finishing solution to complete the reaction. The fluorescence level was measured using a Molecular Device with an excitation filter at 400 nm, and an emission filter at 520 nm. The kinase inhibitory activities of the compounds were calculated in phosphorylation rates between 0˜100% against the control group (staurosporine or each of kinase inhibitor) with reference to the protocol of the kit, and percentage inhibition was calculated and plotted against concentration (x-axis) to calculate 50% inhibitory concentration (IC50). The IC50 values were obtained by using Microsoft Excel, and the results are shown in Table 5, wherein A: IC50≦50 nM, B: IC50=50˜100 nM, C: IC50=100˜1,000 nM, and D: IC50≧1,000 nM.

BTK = biological target: T2, BTK (Homo sapiens, UniProt Q06187); assay: BTK inhibitory activity, Z-Lyte Kinase Assay Kit; assay type: biochemical; conditions: 60 minutes at room temperature, BTK enzyme (Invitrogen PV3190)
T2 construct: purchased Invitrogen PV3190
T2 sequence (Q06187 whole entry): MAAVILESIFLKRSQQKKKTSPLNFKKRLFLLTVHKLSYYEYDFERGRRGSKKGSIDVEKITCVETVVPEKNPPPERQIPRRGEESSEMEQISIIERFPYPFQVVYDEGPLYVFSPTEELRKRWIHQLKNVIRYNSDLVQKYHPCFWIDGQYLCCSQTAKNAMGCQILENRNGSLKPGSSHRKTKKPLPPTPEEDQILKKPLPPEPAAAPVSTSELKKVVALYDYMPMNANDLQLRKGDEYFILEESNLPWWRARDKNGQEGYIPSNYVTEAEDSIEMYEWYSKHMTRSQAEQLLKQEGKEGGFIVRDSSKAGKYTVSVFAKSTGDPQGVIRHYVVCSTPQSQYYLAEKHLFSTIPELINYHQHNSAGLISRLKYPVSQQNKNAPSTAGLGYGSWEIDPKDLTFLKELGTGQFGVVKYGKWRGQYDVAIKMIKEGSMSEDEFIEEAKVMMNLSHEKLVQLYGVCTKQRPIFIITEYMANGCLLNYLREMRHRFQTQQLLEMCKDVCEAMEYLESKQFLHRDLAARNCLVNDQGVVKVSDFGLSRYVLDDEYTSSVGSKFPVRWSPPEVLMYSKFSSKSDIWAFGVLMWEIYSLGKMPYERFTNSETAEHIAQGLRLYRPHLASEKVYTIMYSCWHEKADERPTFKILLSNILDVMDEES
Protocol: as §1, §2, §3

T1 sequence (P52333 781-1124 limits assumed): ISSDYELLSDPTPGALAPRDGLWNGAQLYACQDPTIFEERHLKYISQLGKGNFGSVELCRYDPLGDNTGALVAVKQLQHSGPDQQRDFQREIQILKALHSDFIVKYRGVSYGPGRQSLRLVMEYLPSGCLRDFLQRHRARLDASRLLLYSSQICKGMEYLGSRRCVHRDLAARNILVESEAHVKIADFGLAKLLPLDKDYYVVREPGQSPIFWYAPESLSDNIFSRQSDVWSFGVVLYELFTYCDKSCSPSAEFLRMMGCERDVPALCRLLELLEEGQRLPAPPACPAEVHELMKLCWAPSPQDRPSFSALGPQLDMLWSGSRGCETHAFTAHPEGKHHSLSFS

Row | IC50 (JAK3) [µM] | IC50 (BTK) [µM] | SMILES
1 | 0.05 to 0.1 | ≤ 0.05 | C=CC(=O)Nc1cccc(Oc2c(Cl)cnc3[nH]c(-c4ccc(N5CCN(C)CC5)cc4)nc23)c1 [Example 1, N-(3-(6-chloro-2-(4-(4-methylpiperazin-1-yl)phenyl)-3H-imidazo[4,5-b]pyridin-7-yloxy)phenyl)acrylamide]
2 | 0.1 to 1 | 0.05 to 0.1 | C=CC(=O)Nc1cccc(Oc2c(Cl)cnc3[nH]c(-c4ccc(N5CCC(O)CC5)cc4)nc23)c1 [Example 2, N-(3-(6-chloro-2-(4-(4-hydroxypiperidin-1-yl)phenyl)-3H-imidazo[4,5-b]pyridin-7-yloxy)phenyl)acrylamide]
3 | 0.1 to 1 | ≤ 0.05 | C=CC(=O)Nc1cccc(Oc2c(Cl)cnc3[nH]c(-c4ccc(C(=O)N5CCN(C)CC5)cc4)nc23)c1 [Example 3, N-(3-(6-chloro-2-(4-(4-methylpiperazin-1-carbonyl)phenyl)-3H-imidazo[4,5-b]pyridin-7-yloxy)phenyl)acrylamide]
4 | – | ≤ 0.05 | C=CC(=O)Nc1cccc(Oc2c(Cl)cnc3[nH]c(-c4ccc(C(=O)N5CCOCC5)cc4)nc23)c1 [Example 4, N-(3-(6-chloro-2-(4-(morpholin-4-carbonyl)phenyl)-3H-imidazo[4,5-b]pyridin-7-yloxy)phenyl)acrylamide]
5 | ≤ 0.05 | ≤ 0.05 | C=CC(=O)Nc1cccc(Oc2c(Cl)cnc3[nH]c(-c4ccc(NC5CCN(C)CC5)cc4)nc23)c1 [Example 5, N-(3-(6-chloro-2-(4-(1-methylpiperidin-4-ylamino)phenyl)-3H-imidazo[4,5-b]pyridin-7-yloxy)phenyl)acrylamide]
6 | – | 0.1 to 1 | C=CC(=O)Nc1cccc(Oc2c(Cl)cnc3[nH]c(-c4ccc(N(C)C)cc4)nc23)c1 [Example 6, N-(3-(6-chloro-2-(4-(dimethylamino)phenyl)-3H-imidazo[4,5-b]pyridin-7-yloxy)phenyl)acrylamide]
7 | – | ≤ 0.05 | C=CC(=O)Nc1cccc(Oc2c(Cl)cnc3[nH]c(-c4ccc([S+](C)[O-])cc4)nc23)c1 (stereo not shown) [Example 7, N-(3-(6-chloro-2-(4-(methylsulphinyl)phenyl)-3H-imidazo[4,5-b]pyridin-7-yloxy)phenyl)acrylamide]
8 | 0.05 to 0.1 | ≤ 0.05 | C=CC(=O)Nc1cccc(Oc2c(Cl)cnc3[nH]c(-c4ccc(C(=O)N(C)C)cc4)nc23)c1 [Example 8, 4-(7-(3-acrylamidophenoxy)-6-chloro-3H-imidazo[4,5-b]pyridin-2-yl)-N,N-dimethylbenzamide]
9 | – | 0.1 to 1 | C=CC(=O)Nc1cccc(Oc2c(Cl)cnc3[nH]c(-c4ccc(C(=O)O)cc4)nc23)c1 [Example 9, 4-(7-(3-acrylamidophenoxy)-6-chloro-3H-imidazo[4,5-b]pyridin-2-yl)-benzoic acid]
10 | – | 0.05 to 0.1 | C=CC(=O)Nc1cccc(Oc2c(Cl)cnc3[nH]c(-c4ccc(C(=O)NC5CCN(C)CC5)cc4)nc23)c1 [Example 10, 4-(7-(3-acrylamidophenoxy)-6-chloro-3H-imidazo[4,5-b]pyridin-2-yl)-N-(1-methylpiperidin-4-yl)benzamide]
11 | ≤ 0.05 | ≤ 0.05 | C=CC(=O)Nc1cccc(Oc2c(Cl)cnc3[nH]c(-c4ccc(CN(C)C)cc4)nc23)c1 [Example 11, N-(3-(6-chloro-2-(4-((dimethylamino)methyl)phenyl)-3H-imidazo[4,5-b]pyridin-7-yloxy)phenyl)acrylamide]
12 | ≤ 0.05 | ≤ 0.05 | C=CC(=O)Nc1cccc(Oc2c(Cl)cnc3[nH]c(-c4ccc(CN(C)CC)cc4)nc23)c1 [Example 12, N-(3-(6-chloro-2-(4-((ethyl(methyl)amino)methyl)phenyl)-3H-imidazo[4,5-b]pyridin-7-yloxy)phenyl)acrylamide]
13 | ≤ 0.05 | ≤ 0.05 | C=CC(=O)Nc1cccc(Oc2c(Cl)cnc3[nH]c(-c4ccc(CN(CC)CC)cc4)nc23)c1 [Example 13, N-(3-(6-chloro-2-(4-((diethylamino)methyl)phenyl)-3H-imidazo[4,5-b]pyridin-7-yloxy)phenyl)acrylamide]
14 | ≤ 0.05 | ≤ 0.05 | C=CC(=O)Nc1cccc(Oc2c(Cl)cnc3[nH]c(-c4ccc(CN5CCCC5)cc4)nc23)c1 [Example 14, N-(3-(6-chloro-2-(4-(pyrroldin-1-ylmethyl)phenyl)-3H-imidazo[4,5-b]pyridin-7-yloxy)phenyl)acrylamide]
15 | ≤ 0.05 | ≤ 0.05 | C=CC(=O)Nc1cccc(Oc2c(Cl)cnc3[nH]c(-c4ccc(CN5CCCCC5)cc4)nc23)c1 [Example 15, N-(3-(6-chloro-2-(4-(piperidin-1-ylmethyl)phenyl)-3H-imidazo[4,5-b]pyridin-7-yloxy)phenyl)acrylamide]
16 | ≤ 0.05 | 0.05 to 0.1 | C=CC(=O)Nc1cccc(Oc2c(Cl)cnc3[nH]c(-c4ccc(CN5CCOCC5)cc4)nc23)c1 [Example 16, N-(3-(6-chloro-2-(4-(morpholinomethyl)phenyl)-3H-imidazo[4,5-b]pyridin-7-yloxy)phenyl)acrylamide]
17 | ≤ 0.05 | 0.05 to 0.1 | C=CC(=O)Nc1cccc(Oc2c(Cl)cnc3[nH]c(-c4ccc(CN5CCN(C)CC5)cc4)nc23)c1 [Example 17, N-(3-(6-chloro-2-(4-((4-methylpiperazin-1-yl)methyl)phenyl)-3H-imidazo[4,5-b]pyridin-7-yloxy)phenyl)acrylamide]
18 | – | 0.1 to 1 | C=CC(=O)Nc1cccc(Oc2c(Cl)cnc3[nH]c(-c4ccc(OC)cc4)nc23)c1 [Example 18, N-(3-(6-chloro-2-(4-methoxyphenyl)-3H-imidazo[4,5-b]pyridin-7-yloxy)phenyl)acrylamide]
19 | ≤ 0.05 | 0.1 to 1 | C=CC(=O)Nc1cccc(Oc2c(Cl)cnc3[nH]c(-c4ccncc4)nc23)c1 [Example 19, N-(3-(6-chloro-2-(pyridin-4-yl)-3H-imidazo[4,5-b]pyridin-7-yloxy)phenyl)acrylamide]
20 | 0.1 to 1 | 0.1 to 1 | C=CC(=O)Nc1cccc(Oc2ccnc3[nH]c(-c4ccc(N5CCN(C)CC5)cc4)nc23)c1 [Example 20, N-(3-(2-(4-(4-methylpiperazin-1-yl)phenyl)-3H-imidazo[4,5-b]pyridin-7-yloxy)phenyl)acrylamide]
